Test [1] concerns spinal nerve ligation (SNL) model of neuropathic pain. In words: Paw pressure test (paw withdrawal threshold) in the SNL model of neuropathic pain. The class given is in vivo, rat. From the text:
Rats having the L5-L6 spinal nerves ligated (SNL) according to the method of Kim and Chung, Pain 1992; 50:355-63 were used in this experiment. Briefly, nerve injury was induced by tight ligation of the left L5 and L6 spinal nerves, producing symptoms of neuropathic pain as described below. The advantage of this model is that it allows the investigation of dorsal root ganglia that are injured (L5 and L6) versus dorsal root ganglia that are not injured (L4). Thus, it is possible to see changes in gene expression specifically in response to nerve injury.
Surgery was performed under isoflurane/O2 inhalation anesthesia. Following induction of anesthesia, a 3 cm incision was made just lateral to the spinal vertebrae. The left paraspinal muscles were separated from the spinous process at the L4-S2 levels. The L6 transverse process was carefully removed with a pair of small rongeurs to visually identify the L4-L6 spinal nerves. The left L5 and L6 spinal nerves were isolated and tightly ligated with 7-0 silk suture. A complete hemostasis was confirmed, and the wound was sutured using […] sutures, such as 4-0 Vicryl.
Mechanical sensitivity was assessed using the paw pressure test. This test measures mechanical hyperalgesia. Hind paw withdrawal thresholds (“PWT”) (measured in grams) in response to a noxious mechanical stimulus were determined using an analgesymeter (Model 7200, commercially available from Ugo Basile of Italy), as described in Stein, Biochemistry & Behavior 1988; 31: 451-455. […] PWT was determined once for each rat at each time point, and only the injured ipsilateral paw (i.e., the hind paw on the same side of the animal as the ligation in SNL animals, or the side of the animal where the nerve was exposed but not injured in sham-operated animals) was used in the test. […]
The timeline for the general method of surgery followed by CVF injection is outlined in FIG. 8. […] Pain behavior was measured using the paw pressure test as described in Example 1 above. C3 activity was measured by the hemolysis assay before and after animals received CVF as described below.

In a further test the test system is C3. The experiment in a line: Hemolysis assay measuring C3 activity in serum of rats given CVF. It is filed as in vivo, rat. From the text: A variety of methods well-known in the art can be used to determine at least one activity of a complement component. As described in the Examples Section below, the hemolysis assay can be used to measure the activity of C3 in the serum from blood samples. In the hemolysis assay, erythrocytes are sensitized by coating these erythrocytes with antibodies against red blood cells. Next, the sensitized erythrocytes, C3-depleted serum, and a blood sample to be tested for C3 activity are combined and incubated. During incubation, the complement pathway proceeds on the surface of the erythorcytes using complement components from the C3-depleted serum and C3 from the blood sample. This pathway can result in the formation of a sufficient number of MAC pores to induce erythorcyte lysis and hemoglobin release. The optical density at 540 run is then measured to determine the quantity of free hemoglobin in solution as a result of erythrocyte lysis. Since erythrocyte lysis is a result of complement activation and the presence of C3, the optical density at 540 nm is a measure of the activity of C3 in the blood sample.
To determine the effect of CVF on complement C3 activity, naïve animals were injected with CVF on days 0, 3, and 6. C3 activity was measured using the hemolysis assay before and after CVF injections as described below.
The timeline for the general method of surgery followed by CVF injection is outlined in FIG. 8. Spinal nerve ligation (SNL) was performed on Sprague-Dawley rats as described above in Example 1. On day 0, SNL surgery was performed on 20 rats and sham surgery was performed on 20 rats. At days 23 and 26 post surgery, 10 SNL and 10 sham animals (designated herein as SNL-CVF and Sham-CVF, respectively) were injected (ip) with CVF (350 units/kg). In addition, as controls, 10 SNL and 10 sham animals (designated herein as SNL-saline and Sham-saline, respectively) were given saline injections (ip). Five animals from each group were terminated on day 29. The remaining five animals were terminated on day 39. Pain behavior was measured using the paw pressure test as described in Example 1 above. C3 activity was measured by the hemolysis assay before and after animals received CVF as described below.
The sensitization of sheep erythrocytes and the hemolysis assay to measure C3 activity were performed according to the Quidel Technical Bulletin entitled Measurement of C3 function in non-primate sera by hemolytic assay (Quidel Corporation, Santa Clara, Calif.). References within this protocol are the following: DeSautel and Brode, Laryngoscope 1999, 109:1674-8; Kirshfink, The Complement System 1998, Rother and Till eds, Springer Verlag Berlin Heidelberg, 522-547; Mollnes, Complement and Complement Receptors 1997, Weir ed, 78.1-78.6; Porcel et al., J. Immunol Method. […]

“Also recorded” adds a separate entry of the source.

As to CVF, the “Pain tolerance (withdrawal threshold to a mechanical stimulus) versus SNL animals injected with saline” value in test [1] (SNL rats treated with CVF compared to SNL saline control) is on record as “chronic pain is alleviated; also recorded: higher pain tolerance”. In addition, the “Pain behavior (paw withdrawal threshold) of SNL-CVF animals by day 29” value in test [1] (SNL rats, CVF 350 units/kg ip on days 23 and 26 post surgery, day 29, FIG. 9) is recorded as “not significantly different than Sham-saline or Sham-CVF animals”. Also, in test [1] (SNL rats, CVF 350 units/kg ip on days 23 and 26 post surgery, day 31, FIG. 9), the “Pain behavior (paw withdrawal threshold) of SNL-CVF animals by day 31” value was “returned to day 23 levels”. Besides, the “C3 complement activity levels on day 39” value in the test with C3 (CVF 350 units/kg ip on days 23 and 26 post surgery, day 39, FIG. 10C) was “returned to pre-surgery and day 23 levels”. Further, the “C3 activity levels relative to pre-surgery and day 23” value in the test with C3 (CVF treated animals (350 units/kg ip on days 23 and 26 post surgery), days 28 and 29, FIG. 10B) is on record as “below 20%”. Besides, in the test on C3 (SNL and sham surgery rats injected with CVF or saline, FIGS. 10B and 10C), the “C3 activity (hemolysis assay) after CVF treatment” value is “C3 activity decreases after CVF treatment in both SNL and sham surgery animals”. The “C3 activity (hemolysis assay, optical density at 540 nm) after CVF treatment” value with C3 (naïve rats, CVF given on days 0, 3 and 6, measured at 0, 3, 6, 7, 8 and 12 days, FIG. 10A) is given as “return to pre-dosing levels by day 8; also recorded: C3 activity decreases”.

These data come from US20050222027A1, “Modulation of complement to treat pain” (Euro-Celtique S.A., priority 2003, published 2005).
